Reference: article PMC8327158, “PEGylated AdipoRon derivatives improve glucose and lipid metabolism under insulinopenic and high-fat diet conditions” (Journal of Lipid Research, 2021)

Test system: ceramidase
Assay: Ceramidase activity assay in lysate of treated INS1 cells
Type: cell-based, rat
Conditions: INS1 cells treated 20 μM 24 h
Method: INS1 cells were cultured in 10 cm dish and treated with AdipoRon or AdipoRonPEG5 (20 μM) for 24 h. Remove the media and collect cells using a cell scraper and transfer cells to a 1.5 ml tube. Centrifuge to spin down the cells before freezing in liquid nitrogen. Cell pellets were stored at –80°C till analysis. During analysis, INS1 cell pellets on dry ice were mixed with 500 μl of Dulbecco PBS with Ca^2+ and Mg^2+. The sample was then immediately placed on ice and lysed with a tissue disruptor probe (Fisher Scientific, Model FB50, Waltham MA) by performing five short disruption cycles at a power of 30% (3 s each cycle). Briefly perform a gentle vortexing of the vial. Take an aliquot of 50 μl of sample for protein determination (Pierce™ BCA Protein Assay Kit, Thermo Fisher Scientific). In total, 400 μl of lysate was transferred to a culture borosilicate glass tube containing 1.6 ml of Dulbecco PBS with Ca^2+ and Mg^2+ on ice. […] All the samples and serial dilutions were analyzed by injecting 1 μl in the LC-MS/MS system: Shimadzu LCMS-8060 triple-quadrupole mass spectrometer coupled to a Nexera X2 UHPLC chromatograph (Shimadzu Scientific Instruments, Columbia, MD) operating the dual ion source (DUIS) in electrospray positive ionization mode. […]

Row | SMILES | ceramidase activity / labeled ceramide levels in cell lysate
1 | O=C(COc1ccc(C(=O)c2ccccc2)cc1)NC1CCN(Cc2ccc(OCCOCCOCCOCCOCCO)cc2)CC1 [AdipoRonPEG5] | reduced levels of labeled ceramides
2 | O=C(COc1ccc(C(=O)c2ccccc2)cc1)NC1CCN(Cc2ccccc2)CC1 [AdipoRon] | remained essentially the same as untreated control
